Read-outs that look alike come from different tables or passages of the source. Non-standard residues stand in square brackets, D forms with d. Residues, ends and D or L forms follow the SMILES beside them. Phe(3,4-Cl2) = N[C@@H](Cc1ccc(Cl)c(Cl)c1)C(=O)O; pT = C[C@@H](OP(=O)(O)O)[C@H](N)C(=O)O
Assays:
Assay type in all cases: binding
human PLK1-PBD protein = target: T1, human PLK1-PBD protein (Homo sapiens, UniProt P53350); experiment: Competitive fluorescence polarization (FP) assay, PLK1-PBD inhibition
T1 construct: a C-terminal polo-box domain (PBD)
T1 sequence (P53350 326-603 limits assumed): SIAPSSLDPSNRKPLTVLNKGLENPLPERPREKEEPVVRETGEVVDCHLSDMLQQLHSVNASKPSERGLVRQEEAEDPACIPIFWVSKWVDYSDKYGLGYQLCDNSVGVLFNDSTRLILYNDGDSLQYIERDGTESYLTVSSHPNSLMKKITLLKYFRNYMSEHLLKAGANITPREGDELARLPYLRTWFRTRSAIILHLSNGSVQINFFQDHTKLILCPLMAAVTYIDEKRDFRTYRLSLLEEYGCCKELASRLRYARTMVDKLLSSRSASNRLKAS
Protocol: (§1) To test the binding ability of 9 peptides to the PLK1-PBD, a competitive fluorescence polarization (FP) assay was performed (Table S1).
(§2) A total of 20 μL of 200 nM human PLK1-PBD protein in phosphate-buffered saline (PBS, pH 7.4) was mixed with 20 μL of tested peptides at various concentrations in each well of a 384-well black bottom plate (Corning 3575, Thermo Scientific, Massachusetts, USA). Then, 20 μL of 30 nM probe was added to each well. The plate was shaken at room temperature for 40 min. The polarization values in millipolarization units (mP) were measured at excitation/emission wave lengths of 485/535 nm using a SpectraMax Paradigm Multi-Mode Detection Platform (Molecular-Devices, Tokyo, Japan). The percentage inhibition of the tested peptides at each concentration was defined as […] 1 − (Pobs − Pmin)/(Pmax − Pmin). Pmax is the polarization of the wells containing PLK1-PBD and the probe, Pmin is the polarization of the free probe, and the Pobs is the polarization for the wells containing the peptides with a series of concentrations. According to a previously reported method, FITC-GPMQSpTPLNG-OH was used as the fluorescein-labeled peptide, which was dissolved in dimethyl sulfoxide (DMSO) and the final optimized concentration was set at 20 nM. Phosphopeptides used for competition binding assays were dissolved in assay buffer. The buffer is made up of 50 mM NaCl, 10 mM Tris (pH 8.0), 1 mM EDTA and 0.1% Nonidet P-40. We further performed the sensitivity by synthesizing two fluorescent probes, FITC-GPMQTSpTPKNG-OH for PLK2-PBD and FITC-GPLATSpTPKNG-OH for PLK3-PBD, respectively. All experiments were performed in triplicate and the data were analyzed using GraphPad Prism 6.0 software (GraphPad Software, San Diego, CA, USA).

PLK2-PBD = target: T2, PLK2-PBD (Homo sapiens, UniProt Q9NYY3); experiment: Competitive fluorescence polarization (FP) assay, selectivity vs PLK2-PBD
T2 sequence (Q9NYY3 355-685 limits assumed): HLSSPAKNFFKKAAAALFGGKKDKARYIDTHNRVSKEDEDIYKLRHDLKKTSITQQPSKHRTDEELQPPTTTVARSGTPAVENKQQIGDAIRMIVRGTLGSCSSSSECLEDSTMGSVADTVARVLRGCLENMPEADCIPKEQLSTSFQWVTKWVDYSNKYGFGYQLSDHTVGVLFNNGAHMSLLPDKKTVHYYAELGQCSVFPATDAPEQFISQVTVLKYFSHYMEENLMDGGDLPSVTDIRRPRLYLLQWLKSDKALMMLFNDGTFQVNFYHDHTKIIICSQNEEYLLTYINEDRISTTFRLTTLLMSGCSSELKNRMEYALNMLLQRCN
Protocol: as §1
as §2, with “According to a previously reported method, FITC-GPMQSpTPLNG-OH was used as the fluorescein-labeled peptide, which was dissolved in dimethyl sulfoxide (DMSO) and the final optimized concentration was set at 20 nM. Phosphopeptides used for competition binding assays were dissolved in assay buffer. The buffer is made up of 50 mM NaCl, 10 mM Tris (pH 8.0), 1 mM EDTA and 0.1% Nonidet P-40. We further performed the sensitivity by synthesizing two fluorescent probes, FITC-GPMQTSpTPKNG-OH for PLK2-PBD and FITC-GPLATSpTPKNG-OH for PLK3-PBD, respectively.” left out

PLK3-PBD = target: T3, PLK3-PBD (Homo sapiens, UniProt Q9H4B4); experiment: Competitive fluorescence polarization (FP) assay, selectivity vs PLK3-PBD
T3 sequence (Q9H4B4 335-646 limits assumed): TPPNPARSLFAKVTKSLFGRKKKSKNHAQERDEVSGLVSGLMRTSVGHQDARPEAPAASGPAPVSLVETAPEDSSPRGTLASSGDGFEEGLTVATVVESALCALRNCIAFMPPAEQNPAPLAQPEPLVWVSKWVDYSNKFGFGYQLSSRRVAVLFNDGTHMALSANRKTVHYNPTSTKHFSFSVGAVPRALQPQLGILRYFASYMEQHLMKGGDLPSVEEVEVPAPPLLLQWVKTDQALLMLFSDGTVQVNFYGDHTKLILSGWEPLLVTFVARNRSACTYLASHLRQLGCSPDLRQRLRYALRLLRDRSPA
Protocol: as §1
as §2, with “According to a previously reported method, FITC-GPMQSpTPLNG-OH was used as the fluorescein-labeled peptide, which was dissolved in dimethyl sulfoxide (DMSO) and the final optimized concentration was set at 20 nM. Phosphopeptides used for competition binding assays were dissolved in assay buffer. The buffer is made up of 50 mM NaCl, 10 mM Tris (pH 8.0), 1 mM EDTA and 0.1% Nonidet P-40. We further performed the sensitivity by synthesizing two fluorescent probes, FITC-GPMQTSpTPKNG-OH for PLK2-PBD and FITC-GPLATSpTPKNG-OH for PLK3-PBD, respectively.” left out

[1] = probe FITC-GPMQSpTPLNG-OH, room temperature 40 min, performed in triplicate, read-out: IC50
[2] = at 1 μM inhibitor concentration

With `CC[C@H](C)[C@H](NC(=O)[C@H](C)NC(=O)[C@@H](NC(=O)[C@H](CO)NC(=O)[C@H](Cc1c[nH]cn1)NC(=O)[C@H](CC(C)C)NC(=O)[C@@H]1CCCN1C(=O)[C@@H]1CCCN1C(=O)[C@H](CCC(=O)O)NC(=O)[C@@H](N)Cc1ccc(O)cc1)[C@@H](C)OP(=O)(O)O)C(=O)NCC(=O)O` [Peptide 1] (H-YEPPLHS[pT]AIG-OH) the IC50 (human PLK1-PBD protein; [1]) was 320 ± 20 nM.
`CC[C@H](C)[C@H](NC(=O)[C@H](C)NC(=O)[C@@H](NC(=O)[C@H](CO)NC(=O)[C@H](Cc1c[nH]cn1)NC(=O)[C@H](CC(C)C)NC(=O)[C@@H]1CCCN1C(=O)[C@@H]1CCCN1C(=O)[C@H](CC(=O)O)NC(=O)[C@@H](N)Cc1c[nH]c2ccccc12)[C@@H](C)OP(=O)(O)O)C(=O)O` [Peptide 2] (H-WDPPLHS[pT]AI-OH) showed an IC50 (human PLK1-PBD protein; [1]) of 190 ± 10 nM.
Work on `CC[C@H](C)[C@H](NC(=O)[C@H](C)NC(=O)[C@@H](NC(=O)[C@H](CO)NC(=O)[C@H](Cc1c[nH]cn1)NC(=O)[C@H](CC(C)C)NC(=O)[C@@H]1CCCN1C(=O)[C@@H]1CCCN1C(=O)[C@H](CCC(=O)O)NC(=O)[C@@H](N)Cc1ccccc1)[C@@H](C)OP(=O)(O)O)C(=O)O` [Peptide 3] (H-FEPPLHS[pT]AI-OH) yielded an IC50 (human PLK1-PBD protein; [1]) of 290 ± 20 nM.
`CC(C)C[C@H](NC(=O)[C@@H]1CCCN1C(=O)[C@@H]1CCCN1C(=O)[C@H](CCC(=O)O)NC(=O)[C@@H](N)Cc1ccccc1)C(=O)N[C@@H](Cc1c[nH]cn1)C(=O)N[C@@H](CO)C(=O)N[C@H](C(=O)N[C@@H](C)C(=O)NCC(=O)O)[C@@H](C)OP(=O)(O)O` [Peptide 4] (H-FEPPLHS[pT]AG-OH) showed an IC50 (human PLK1-PBD protein; [1]) of 160 ± 20 nM.
In the case of `CC(C)C[C@H](NC(=O)[C@@H]1CCCN1C(=O)[C@@H]1CCCN1C(=O)[C@H](CC(N)=O)NC(=O)[C@@H](N)Cc1ccc(Cl)c(Cl)c1)C(=O)N[C@@H](Cc1c[nH]cn1)C(=O)N[C@@H](CO)C(=O)N[C@H](C(=O)N[C@@H](C)C(=O)O)[C@@H](C)OP(=O)(O)O` [Peptide 5] (H-[Phe(3,4-Cl2)]NPPLHS[pT]A-OH), the IC50 (human PLK1-PBD protein; triplicates, mean ± SD of three data sets, read-out: IC50 PLK1-PBD) is reported as 70 nM, the IC50 (PLK2-PBD; Table S2, probe FITC-GPMQTSpTPKNG-OH, triplicates) is reported as > 1000 nM and the inhibition at 1 µM (PLK2-PBD; [2]) is reported as ≤ 10%. The IC50 (PLK3-PBD; Table S2, probe FITC-GPLATSpTPKNG-OH, triplicates) was > 1000 nM and the inhibition at 1 µM (PLK3-PBD; [2]) was ≤ 10%.
Work on `CC(C)C[C@H](NC(=O)[C@@H]1CCCN1C(=O)[C@@H]1CCCN1C(=O)[C@H](C)NC(=O)[C@@H](N)Cc1c[nH]c2ccccc12)C(=O)N[C@@H](Cc1c[nH]cn1)C(=O)N[C@@H](CO)C(=O)N[C@H](C(=O)N[C@@H](C)C(=O)N[C@@H](CCCCN)C(=O)O)[C@@H](C)OP(=O)(O)O` [Peptide 6] (H-WAPPLHS[pT]AK-OH) yielded an IC50 (human PLK1-PBD protein; [1]) of 350 ± 110 nM.
Compound `CC(C)C[C@H](NC(=O)[C@@H]1CCCN1C(=O)[C@@H]1CCCN1C(=O)[C@H](CCCCN)NC(=O)[C@@H](N)Cc1c[nH]c2ccccc12)C(=O)N[C@@H](Cc1c[nH]cn1)C(=O)N[C@@H](CO)C(=O)N[C@H](C(=O)N[C@@H](C)C(=O)NCC(=O)O)[C@@H](C)OP(=O)(O)O` [Peptide 7] (H-WKPPLHS[pT]AG-OH) has an IC50 (human PLK1-PBD protein; [1]) of 420 ± 200 nM.
`CC(C)C[C@H](NC(=O)[C@@H]1CCCN1C(=O)[C@@H]1CCCN1C(=O)[C@H](CCCCN)NC(=O)[C@@H](N)Cc1c[nH]cn1)C(=O)N[C@@H](Cc1c[nH]cn1)C(=O)N[C@@H](CO)C(=O)N[C@H](C(=O)N[C@@H](C)C(=O)O)[C@@H](C)OP(=O)(O)O` [Peptide 8] (H-HKPPLHS[pT]A-OH) was tested, and the IC50 (human PLK1-PBD protein; [1]) was 610 ± 320 nM.
`CC(C)C[C@H](NC(=O)[C@@H]1CCCN1C(=O)[C@@H]1CCCN1C(=O)[C@H](CCC(N)=O)NC(=O)[C@@H](N)Cc1c[nH]cn1)C(=O)N[C@@H](Cc1c[nH]cn1)C(=O)N[C@@H](CO)C(=O)N[C@H](C(=O)N[C@@H](C)C(=O)O)[C@@H](C)OP(=O)(O)O` [Peptide 9] (H-HQPPLHS[pT]A-OH) gave an IC50 (human PLK1-PBD protein; [1]) of 720 ± 240 nM.
`CSCC[C@H](NC(=O)[C@@H]1CCCN1C(=O)CNC(=O)[C@H](C)NC(=O)[C@@H](N)CCSC)C(=O)N[C@@H](CCC(N)=O)C(=O)N[C@@H](CO)C(=O)N[C@H](C(=O)N1CCC[C@H]1C(=O)N[C@@H](CC(C)C)C(=O)N[C@@H](CC(N)=O)C(=O)NCC(=O)N[C@@H](C)C(=O)N[C@@H](CCCCN)C(=O)N[C@@H](CCCCN)C(=O)O)[C@@H](C)OP(=O)(O)O` [Polo b oxtide, reference compound] (H-MAGPMQS[pT]PLNGAKK-OH) was tested, and the IC50 (human PLK1-PBD protein; [1]) was 7920 ± 1030 nM.

Source: paper PMC6982974, “Structure-Based Virtual Screening and Biological Evaluation of Peptide Inhibitors for Polo-Box Domain” (Molecules, 2019)
